What was measured:
[1] = biological target: T1, Human Thrombin (Homo sapiens, UniProt P00734); assay: Determination of Anti-Thrombin (Factor IIa) Activity; format: biochemical; settings: competitive inhibition; substrate Pefachrome Thr; pH 8.3
T1 construct: Determination of Anti-Thrombin (Factor IIa) Activity; purchased Calbiochem
Method: The test compounds (40 μL) adjusted to various concentrations (0.25 to 100 μM) were incubated with Human Thrombin (Calbiochem) enzyme (5 nM) in 31 mM Tris buffer (pH 8.3) containing 81 mM sodium chloride and 0.63% bovine serum albumin (fraction V)(80 μL) at room temperature for about 30 minutes. 80 μL of Pefachrome® Thr (Pentapharm) was adjusted to various concentrations, from 62.5 μM to 1.25 mM. The activity was measured at about 37° C. by monitoring absorbance at 405 nm for about 15 minutes using a FLUOstar OPTIMA™. Control sample was the solvent alone. Each test compound was analyzed twice using 4 concentrations of compound plus control (in duplicate) with 5 concentrations of substrate (50, 100, 200, 300 and 500 μM). The specific activity (ΔA405/min/nM enzyme) was determined for each data point. The Ki for competitive inhibition was then determined for each test compound using the Enzyme Kinetics module of Sigmaplot 8.0 (SPSS).

[2] = biological target: T2, Human FXa (Homo sapiens, UniProt P00742); assay: Determination of Anti-Factor Xa (Fxa) Activity; format: biochemical; settings: competitive inhibition; substrate Pefachrome Xa; pH 7.5
T2 construct: Determination of Anti-Factor Xa (Fxa) Activity; purchased Calbiochem
T2 sequence (P00742 235-488 limits assumed): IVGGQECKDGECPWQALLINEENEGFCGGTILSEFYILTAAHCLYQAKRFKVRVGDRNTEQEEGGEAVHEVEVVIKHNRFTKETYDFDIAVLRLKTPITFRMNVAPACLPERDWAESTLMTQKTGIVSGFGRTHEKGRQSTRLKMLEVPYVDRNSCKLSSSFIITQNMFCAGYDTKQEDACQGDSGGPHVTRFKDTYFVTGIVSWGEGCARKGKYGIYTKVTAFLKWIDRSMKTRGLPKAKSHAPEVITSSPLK
T2 sequence (P00742 41-179 partner limits assumed): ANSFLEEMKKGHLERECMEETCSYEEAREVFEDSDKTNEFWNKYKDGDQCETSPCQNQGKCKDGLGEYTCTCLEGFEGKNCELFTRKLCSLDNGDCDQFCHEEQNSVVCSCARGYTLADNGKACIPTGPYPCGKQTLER
Method: The test compounds (40 μL) adjusted to various concentrations (0.25 to 100 μM) were incubated with 5 nM Human FXa (Calbiochem, San Diego, Calif.) enzyme in 125 mM Tris [Tris(hydroxymethyl)aminomethane] buffer (pH 7.5) containing 375 mM sodium chloride and 0.25% polyethylene glycol (MW 8000) (80 μL) at room temperature for about 30 minutes. 80 μL of synthetic substrate Pefachrome® Xa (Pentapharm, Basel, Switzerland), adjusted to various concentrations from 125 μM to 1.25 mM, was added. The activity was measured at 37° C. by monitoring absorbance at 405 nm for 15 minutes using a FLUOstar OPTIMA™ (BMG Labtech GmbH, Offenburg, Germany) microplate reader. Control sample was the solvent alone. Each test compound was analyzed twice using 4 concentrations of compound plus control (in duplicate) with 5 concentrations of substrate (50, 100, 200, 300 and 500 μM). The specific activity (ΔA405/min/nM enzyme) was determined for each data point. The Ki for competitive inhibition was then determined for each test compound using the Enzyme Kinetics module of Sigmaplot 8.0 (SPSS Inc., Chicago, Ill.).

[3] = system: platelets (platelet rich plasma); assay: Inhibition of platelet aggregation, collagen as agonist; format: cell-based; settings: human PRP; for inhibition at 30 µM: compound 30 μM; for inhibition at 5 µM: compound 5 μM
Method: (§1) Platelet rich plasma (PRP) was obtained by drawing whole blood from normal human donors (not on any medication) into sodium citrate tubes (3.2%), and centrifuging at 160×g for about 10 minutes. Platelet poor plasma (PPP) was obtained by centrifuging the remainder of the sample after the platelets were removed at 800×g for about 10 minutes. The PRP was adjusted to a count of 280×10^9/L using a mixture of PRP and PPP. The platelets (200 μL) were incubated with the test compounds (25 μL) adjusted to various concentrations (5, 10, 20, 30, 50, and 100 μM) for about 30 minutes at room temperature (approximate final platelet count in the incubation mixture of 250×10^9/L). The samples were incubated for about 3 minutes at about 37° C., and then transferred to the mixing wells of a Chrono-log 4 channel aggregometer (Chrono-log Corp., Havertown, Pa.). After baselines were established, agonist (25 μL of 40 μM ADP (Sigma, St. Louis, Mo.) or 25 μL of 50 μg/mL and 10 μg/mL collagen (Helena Laboratories, Beaumont, Tex.) or 25 μL of 120 μM thrombin receptor activating peptide (TRAP) (Sigma)) was then added. Aggregation was monitored for 5 minutes at 37° C. with stirring (1000 rpm). The amplitude and slope of each tracing were calculated to determine the amount of aggregation. Control samples were performed using only solvent. The % reduction in aggregation was calculated for each sample compared to the proper solvent control.

[4] = system: platelets (platelet rich plasma); assay: Inhibition of platelet aggregation, ADP as agonist; format: cell-based; settings: ADP 4 μM, human PRP, read-out: % Reduction in Aggregation ADP (4 μM); for inhibition at 30 µM: compound 30 μM
Method: as §1

[5] = system: platelets (platelet rich plasma); assay: Inhibition of platelet aggregation, thrombin receptor activating peptide (TRAP) as agonist; format: cell-based; settings: TRAP 12 μM, human PRP, read-out: % Reduction in Aggregation TRAP (12 μM); for inhibition at 30 µM: compound 30 μM
Method: as §1

[6] = collagen 1 μg/mL, read-out: % Reduction in Aggregation Collagen (1 μg/mL)
[7] = collagen 5 μg/mL, read-out: % Reduction in Aggregation Collagen (5 μg/mL)

| SMILES | Ki [1] [nM] | Ki [2] [nM] | inhibition at 30 µM [3, 6] [%] | inhibition at 30 µM [3, 7] [%] | inhibition at 30 µM [4] [%] | inhibition at 30 µM [5] [%] | inhibition at 10 µM ([3]; compound 10 μM, collagen 1 μg/mL, read-out: % Reduction in Aggregation Collagen (1 μg/mL)) [%] | inhibition at 10 µM ([4]; compound 10 μM) [%] | inhibition at 10 µM ([5]; compound 10 μM) [%] | inhibition at 50 µM ([3]; compound 50 μM, collagen 1 μg/mL, read-out: % Reduction in Aggregation Collagen (1 μg/mL)) [%] | inhibition at 50 µM ([4]; compound 50 μM) [%] | inhibition at 50 µM ([5]; compound 50 μM) [%] | inhibition at 5 µM [3, 6] [%] | inhibition at 5 µM [3, 7] [%] | inhibition at 5 µM ([4]; compound 5 μM) [%] | inhibition at 5 µM ([5]; compound 5 μM) [%] |
| --- | --- | --- | --- | --- | --- | --- | --- | --- | --- | --- | --- | --- | --- | --- | --- | --- |
| Cc1ncc(CNc2ccc(-c3ccc(C(=N)N)cc3)cc2)c(C)c1OCc1ccc(C(=N)N)cc1 [Compound 25, 4′-{[5-(4-Carbamimidoyl-benzyloxy)-4,6-dimethyl-pyridin-3-ylmethyl]-amino}-biphenyl-4-carboxamidine] | 3770 | 320 | 96 | 52 | 93 | 95 |  |  |  |  |  |  |  |  |  |  |
| Cc1ncc(CNc2ccc(-c3ccc(C(=N)N)cc3)cc2)c(C)c1OCc1cccc(C(=N)N)c1 [Compound 29, 4′-{[5-(3-Carbamimidoyl-benzyloxy)-4,6-dimethyl-pyridin-3-ylmethyl]-amino}-biphenyl-4-carboxamidine] | 4600 | 140 | 32 | 15 | 52 | 32 |  |  |  |  |  |  |  |  |  |  |
| Cc1ncc(CNc2ccc(C(=N)N)cc2)c(C)c1OCc1ccc(C(=N)N)cc1 [Compound 31, 4-{[5-(4-Carbamimidoyl-benzyloxy)-4,6-dimethyl-pyridin-3-ylmethyl]-amino}-benzamidine] | 62 | 1340 |  |  |  |  | 83 | 80 | 84 |  |  |  |  |  |  |  |
| Cc1ncc(CNc2ccc(C(=N)N)cc2)c(C)c1OCc1cccc(C(=N)N)c1 [Compound 33, 4-{[5-(3-Carbamimidoyl-benzyloxy)-4,6-dimethyl-pyridin-3-ylmethyl]-amino}-benzamidine] | 31 | 284 |  |  |  |  |  |  |  | 81 | 84 | 79 |  |  |  |  |
| Cc1ncc(CNc2ccc(-c3ccc(C(=N)N)cc3)cc2)c(CNCCCCCC(=O)O)c1OCc1ccc(C(=N)N)cc1 [Compound 56, 6-({3-(4-Carbamimidoyl-benzyloxy)-5-[(4′-carbamimidoyl-biphenyl-4-ylamino)-methyl]-2-methyl-pyridin-4-ylmethyl}-amino) hexanoic acid] | 848 | 6200 |  |  |  |  |  |  |  |  |  |  | 91 | 63 | 96 | 90 |
| Cc1ncc(CNc2ccc(-c3ccc(C(=N)N)cc3)cn2)c(CO)c1OCc1ccc(C(=N)N)cc1 [Compound 60] | 11000 | 25000 | 47 | 26 | 87 | 89 |  |  |  |  |  |  |  |  |  |  |

Source: patent US7812037B2, “Dual antiplatelet/anticoagulant pyridoxine analogs” (Medicure International, Inc., priority 2004, dated 2010)
